Test results taken from paper PMC5632533, “Mechanisms of action and in vivo antibacterial efficacy assessment of five novel hybrid peptides derived from Indolicidin and Ranalexin against Streptococcus pneumoniae” (PeerJ, 2017).

Tested on: ICR (CD-1) mice
Experiment: In vivo toxicity in mice (SC, IN, IP routes)
Design: Aspartate aminotransferase, AST / Alanine transaminase, ALT / Alkaline phosphatase, ALP / Creatinine / Urea / Total bilirubin: unit not given here
Settings: for Eosinophil / Erythrocytes, RBC / Granulocytes / Hematocrit, HCT / Hemoglobin Hgb / Lymphocytes / Mean corpuscular haemoglobin concentration, MCHC / Mean corpuscular haemoglobin, MCH / Monocytes / White blood cells, WBC / platelet Counts, PLT / Mean corpuscular volume, MCV / Alanine transaminase, ALT / Alkaline phosphatase, ALP / Aspartate aminotransferase, AST / Creatinine / Total bilirubin / Urea: 3 doses (1hr, 12hr, 24hr), RN7-IN9, RN7-IN6 10 mg/kg, day 7, mean±SD, 4 mice; for maximum IP dose at which no signs of stress or abnormal behavior were evident (non-toxic dose): doses at 1 h, 12 h, 24 h, no death up to seven days; for Alanine transaminase, ALT / Alkaline phosphatase, ALP / Aspartate aminotransferase, AST / Creatinine / Total bilirubin / Urea: serum
Protocol: In this study, 4-week old male, pathogen free ICR (CD-1) mice were purchased from InVivos (Lim Chu Kang, Singapore) and used to assess the in vivo toxicity and antibacterial efficacy of the novel peptides, as these animals are by far the most commonly used model for the study of pneumococcal disease ([Chiavolini, Pozzi & Ricci, 2008]). The mice were kept in ventilated polycarbonate cages (12 h light/dark cycle, 20 ± 2 °C and 55% relative humidity). All mice were familiarized for seven days before any experimental procedure and were given unlimited pellets and water ad libitum. All animal experimentations were conducted according to the guidelines approved by Faculty of Medicine Institutional Animal Care and Use Committee (FOM IACUC), University of Malaya (ethics Reference no. : 2013-07-15/MMBTR/SDS).
In order to evaluate the possible toxic effects correlated to peptides administered in mice, four hybrid peptides RN7-IN10, RN7-IN9, RN7-IN8 and RN7-IN6 were chosen for in vivo toxicity assessment, due to their promising in vitro antibacterial activity ([Jindal et al., 2015]). Mice were separated into four groups (each with four mice) and were injected with respective peptides at 1 h, 12 h, and 24 h (three-dose regimen) via IP, SC, and IN administration routes. The hybrid peptides were first administered at high doses (100 mg/kg for IP route, 100 mg/kg for SC routes and 20 mg/kg for IN route). Any abnormal behavior was recorded and survival of mice was noted as well. In case adverse effects such as high physical stress, severe lethargy, physical inactiveness, and/or death were detected, lower graded doses were given. All the administered mice were monitored for seven days or until death occurred. At day seven post administration, all animals were sacrificed and blood and organs were collected. Untreated mice were used as a control group.
Mice used to evaluate the in vivo toxicity and antibacterial activity of the hybrid peptides using the subcutaneous (SC) and intranasal (IN) administration routes, were anesthetized using a combination of a standard dose of xylazine (ilium xylazil-20, 10 mg/kg) and ketamine (Narketan®-10, 100 mg/kg) through intraperitoneal (IP) injection. After seven days of treatment, the in vivo toxicity and antibacterial efficacy experiments were ended and the surviving mice were anesthetized. Blood samples for Hematological and biochemical analysis were collected via cardiac puncture using a 25G syringe (BD bioscience, San Jose, CA, USA). Whole blood for heamatological analysis was collected in 500 µl dipotassium EDTA microtainer tubes (BD Bioscience, USA). About 500 µl of blood collected an eppedorff tube and centrifuged at 8000 rpm for 5 min and then the serum was transferred into a new 1.5 ml tube for biochemistry analysis. The mice were then euthanized by cervical dislocation, dissected and the following organs were collected for histopathology evaluation: lung, kidney, brain, liver and spleen.
For whole blood analysis, the parameters were number of red cells (RBC), number of white cells (WBC), lymphocytes, monocytes, eosinophil, granulocytes, haemoglobin (Hgb), mean corpuscular volume (MCV), hematocrit (HCT), platelet Counts (PLT), Mean corpuscular haemoglobin (MCH) and corpuscular haemoglobin concentration (MCHC). For biochemistry analysis, the parameters were alanine transaminase (ALT), creatinine, alkaline phosphatase (ALP), aspartate aminotransferase (AST), total bilirubin and urea.
The following organs were collected from all the dissected mice: lung, kidney, brain, spleen, and liver. All tissues were fixed in 10% (v/v) buffered formalin and processed for paraffin embedding. Hematoxylin–eosin (HE) was used to stain the histological sections at the histopathology laboratory, Veterinary Laboratory Service Unit, University Putra Malaysia (UPM).

[1] = IN, head doses: RN7-IN10, RN7-IN8 20 mg/kg
[2] = SC, head doses: RN7-IN10, RN7-IN8 20 mg/kg

With “FLGGLIKKWPWWPWRR-NH2 [RN7-IN9, hybrid peptide of ranalexin (residues 1-7) and indolicidin (residues 5-13)]” the Eosinophil [1] was 3.2±1.2%, the “Erythrocytes, RBC” value [1] was 9.36±0.9 10^6/mm^3 and the Granulocytes [1] was 56.2±10.81%. The “Hematocrit, HCT” value [1] was 46.82±4.23%, the “Hemoglobin Hgb” value [1] was 14.9 ± 1.32 g/dL and the Lymphocytes [1] was 41.27±10.56%. The “Mean corpuscular haemoglobin concentration, MCHC” value [1] was 31.85 ± 0.17 g/dL, the “Mean corpuscular haemoglobin, MCH” value [1] was 15.95 ± 0.33 pg and the Monocytes [1] was 2.52±0.27%. For the same substance, the “White blood cells, WBC” value [1] was 5.2±2.35 10^3/mm^3, the “platelet Counts, PLT” value [1] was 656.75±76.9 10^3/mm^3 and the Eosinophil (IP, RN7-IN10, RN7-IN8 20 mg/kg) was 3.95±2.56%. The “Erythrocytes, RBC” value (IP, RN7-IN10, RN7-IN8 20 mg/kg) was 8.06±1.04 10^6/mm^3, the Granulocytes (IP, RN7-IN10, RN7-IN8 20 mg/kg) was 53.02±4.07% and the “Hematocrit, HCT” value (IP, RN7-IN10, RN7-IN8 20 mg/kg) was 41.42±5.25%. For the same substance, the “Hemoglobin Hgb” value (IP, RN7-IN10, RN7-IN8 20 mg/kg) was 13.9 ± 1.67 g/dL, the “Mean corpuscular haemoglobin concentration, MCHC” value (IP, RN7-IN10, RN7-IN8 20 mg/kg) was 33.63 ± 0.34 g/dL and the “Mean corpuscular haemoglobin, MCH” value (IP, RN7-IN10, RN7-IN8 20 mg/kg) was 17.25 ± 0.78 pg. For the same substance, the “Mean corpuscular volume, MCV” value (IP, RN7-IN10, RN7-IN8 20 mg/kg) was 51.5±2.64 µm^3, the Monocytes (IP, RN7-IN10, RN7-IN8 20 mg/kg) was 2.47±0.25% and the “White blood cells, WBC” value (IP, RN7-IN10, RN7-IN8 20 mg/kg) was 3.7±1.54 10^3/mm^3. For the same substance, the “platelet Counts, PLT” value (IP, RN7-IN10, RN7-IN8 20 mg/kg) was 674±118.72 10^3/mm^3, the “maximum IP dose at which no signs of stress or abnormal behavior were evident (non-toxic dose)” value (IP) was 10 mg/kg and the Eosinophil [2] was 2.77±0.54%. For the same substance, the “Erythrocytes, RBC” value [2] was 9.22±0.98 10^6/mm^3, the Granulocytes [2] was 55.55±4.52% and the “Hematocrit, HCT” value [2] was 46.15±5.19%. For the same substance, the “Hemoglobin Hgb” value [2] was 15.75 ± 1.4 g/dL, the Lymphocytes [2] was 46.47±5.48% and the “Mean corpuscular haemoglobin concentration, MCHC” value [2] was 34.2 ± 1.37 g/dL. The “Mean corpuscular haemoglobin, MCH” value [2] was 17.1 ± 0.53 pg, the “Mean corpuscular volume, MCV” value [2] was 51±1.82 µm^3 and the Monocytes [2] was 1.95±0.1%. The “White blood cells, WBC” value [2] was 4.32±0.55 10^3/mm^3, the “platelet Counts, PLT” value [2] was 449.75±100.23 10^3/mm^3 and the “Alanine transaminase, ALT” value [1] was 41.22±15.75. For the same substance, the “Alkaline phosphatase, ALP” value [1] was 127.75±6.07, the “Aspartate aminotransferase, AST” value [1] was 141.2±23.08 and the Creatinine [1] was 37.66±1.26. The Total bilirubin [1] was 2.01±0.27, the Urea [1] was 9.6±1.02 and the “Alanine transaminase, ALT” value (IP, RN7-IN10, RN7-IN8 20 mg/kg) was 51.54±5.83. The “Aspartate aminotransferase, AST” value (IP, RN7-IN10, RN7-IN8 20 mg/kg) was 172.33±26.35, the Creatinine (IP, RN7-IN10, RN7-IN8 20 mg/kg) was 37.3±3.51 and the Total bilirubin (IP, RN7-IN10, RN7-IN8 20 mg/kg) was 1.9±0.02. For the same substance, the Urea (IP, RN7-IN10, RN7-IN8 20 mg/kg) was 10.56±5.2, the “Alanine transaminase, ALT” value [2] was 43.17±13.81 and the “Alkaline phosphatase, ALP” value [2] was 131.25±19.7. For the same substance, the “Aspartate aminotransferase, AST” value [2] was 188.33±11.22, the Creatinine [2] was 35±1.27 and the Total bilirubin [2] was 2.2±0.13. It also gave a Urea [2] of 8.84±1.04.

In the case of “FLGGLIKWKWPWWPWRR-NH2 [RN7-IN10, hybrid peptide of ranalexin (residues 1-7) and indolicidin (residues 4-13)]”, the Eosinophil [1] is reported as 2.7±0.97%, the “Erythrocytes, RBC” value [1] is reported as 9.62±0.79 10^6/mm^3 and the Granulocytes [1] is reported as 66.6±21.64%. For the same substance, the “Hematocrit, HCT” value [1] was 47.95±3.18%, the “Hemoglobin Hgb” value [1] was 15.47 ± 1.07 g/dL and the Lymphocytes [1] was 58.5±7.53%. For the same substance, the “Mean corpuscular haemoglobin concentration, MCHC” value [1] was 28.3 ± 8.15 g/dL, the “Mean corpuscular haemoglobin, MCH” value [1] was 20 ± 7.87 pg and the “Mean corpuscular volume, MCV” value [1] was 50.75±1.7 µm^3. For the same substance, the Monocytes [1] was 2.2±0.37%, the “White blood cells, WBC” value [1] was 5.2±1.44 10^3/mm^3 and the “platelet Counts, PLT” value [1] was 619.5±100.42 10^3/mm^3. The Eosinophil (IP, RN7-IN10, RN7-IN8 20 mg/kg) was 2.23±1.61%, the “Erythrocytes, RBC” value (IP, RN7-IN10, RN7-IN8 20 mg/kg) was 9.16±0.92 10^6/mm^3 and the Granulocytes (IP, RN7-IN10, RN7-IN8 20 mg/kg) was 46.27±16.41%. For the same substance, the “Hematocrit, HCT” value (IP, RN7-IN10, RN7-IN8 20 mg/kg) was 47.67±5.6%, the “Hemoglobin Hgb” value (IP, RN7-IN10, RN7-IN8 20 mg/kg) was 15.85 ± 1.27 g/dL and the Lymphocytes (IP, RN7-IN10, RN7-IN8 20 mg/kg) was 51.03±16.69%. For the same substance, the “Mean corpuscular haemoglobin concentration, MCHC” value (IP, RN7-IN10, RN7-IN8 20 mg/kg) was 33.85 ± 0.60 g/dL, the “Mean corpuscular haemoglobin, MCH” value (IP, RN7-IN10, RN7-IN8 20 mg/kg) was 17.6 ± 0.46 pg and the “Mean corpuscular volume, MCV” value (IP, RN7-IN10, RN7-IN8 20 mg/kg) was 50.75±2.06 µm^3. The Monocytes (IP, RN7-IN10, RN7-IN8 20 mg/kg) was 2.8±0.5%, the “White blood cells, WBC” value (IP, RN7-IN10, RN7-IN8 20 mg/kg) was 4.2±0.55 10^3/mm^3 and the “platelet Counts, PLT” value (IP, RN7-IN10, RN7-IN8 20 mg/kg) was 535±150.11 10^3/mm^3. For the same substance, the “maximum IP dose at which no signs of stress or abnormal behavior were evident (non-toxic dose)” value (IP) was 20 mg/kg, the Eosinophil [2] was 2.82±0.25% and the “Erythrocytes, RBC” value [2] was 8.04±1.18 10^6/mm^3. The “Hematocrit, HCT” value [2] was 41.5±3.7%, the “Hemoglobin Hgb” value [2] was 13.75 ± 1.77 g/dL and the Lymphocytes [2] was 52.2±3.3%. The “Mean corpuscular haemoglobin concentration, MCHC” value [2] was 34.45 ± 1.35 g/dL, the “Mean corpuscular haemoglobin, MCH” value [2] was 17.08 ± 0.4 pg and the “Mean corpuscular volume, MCV” value [2] was 50±2.16 µm^3. The Monocytes [2] was 2.2±0.28%, the “White blood cells, WBC” value [2] was 3.8±0.2 10^3/mm^3 and the “platelet Counts, PLT” value [2] was 568.75±81.73 10^3/mm^3. The “Alanine transaminase, ALT” value [1] was 66.9±17.02, the “Alkaline phosphatase, ALP” value [1] was 133.3±10.1 and the “Aspartate aminotransferase, AST” value [1] was 172±8.78. The Creatinine [1] was 40.94±0.83, the Total bilirubin [1] was 2.15±0.14 and the Urea [1] was 9.3±1.68. For the same substance, the “Alanine transaminase, ALT” value (IP, RN7-IN10, RN7-IN8 20 mg/kg) was 52.76±12.22, the “Alkaline phosphatase, ALP” value (IP, RN7-IN10, RN7-IN8 20 mg/kg) was 124.33±10.6 and the “Aspartate aminotransferase, AST” value (IP, RN7-IN10, RN7-IN8 20 mg/kg) was 181.66±38.27. For the same substance, the Creatinine (IP, RN7-IN10, RN7-IN8 20 mg/kg) was 38.1±6.97, the Total bilirubin (IP, RN7-IN10, RN7-IN8 20 mg/kg) was 1.82±0.03 and the Urea (IP, RN7-IN10, RN7-IN8 20 mg/kg) was 9.6±2.11. For the same substance, the “Alanine transaminase, ALT” value [2] was 51.25±11.9, the “Aspartate aminotransferase, AST” value [2] was 175±25.41 and the Creatinine [2] was 37.8±3.43. It also gave a Total bilirubin [2] of 2.1±0.35 and a Urea [2] of 9.2±0.8.
